Measurements as given in patent US8883801B2, “Substituted pyrazolo[1,5-a]pyrimidines as mTOR inhibitors” (Merck Sharp & Dohme Corp., priority 2010, dated 2014).
Where two headings read alike, the source gives them in different places.

Key:
[1] = target: human mTOR enzyme (Homo sapiens, UniProt P42345); assay: HTRF mTOR enzyme (kinase) assay; type: biochemical; details: 5 μM ATP, 0.2 μM GST-S6K, read-out: hMTOR IC50
Description: Methods: An HTRF mTOR enzyme assay was developed to assess the compounds' inhibitory activity. The mTOR assay buffer contained 10 mM Hepes (pH 7.4), 50 mM NaCl, […] BSA, 50 mM […], 10 mM MnCl2 and 0.5 mM DTT. […] 20 ng of human mTOR enzyme (<5% pure was preincubated with the compound for 10 minutes followed by the addition of 5 μM ATP and 0.2 μM GST-S6K (Zhang et al., Protein Expression and Purification 46, pp 414-420 (2006)). The reaction was incubated for one hour at 30° C. Anti phospho p70-S6K(Thr389) (˜1.7 ng/well, anti-phospho-p70S6K-cryptate (Pho-p70S6-Kin-K cat#64CUSKAY, from Cisbio)) and anti GST-XL665 (1:1 Ratio with the substrate GST-S6K, anti GST-XL665, cat#61GSTXLB) Cisbio) were added after the reaction was stopped. The plates were read (PHERAstar, BMG) at least 2 hours after adding the anti phospho p70-S6K and the anti GST-XL665.
IC50 DETERMINATIONS: Dose-response curves were plotted from the inhibition data generated, each in duplicate, from 8 point serial dilutions of inhibitory compounds. Concentration of compound was plotted against the HTRF em665/em590 ratio signal. To generate IC50 values, the dose-response curves were fitted to a standard sigmoidal curve and IC50 values were derived by nonlinear regression analysis.

[2] = tested on: mTORC2 activity: phosphorylated AKT Ser473 (pAKT S473) in PC3 cells; assay: mTOR target engagement assay, immunofluorescent cell-based, mTORC2 readout; details: Homo sapiens, PC-3, 1.5 h, 90 min treatment
Description: The target engagement of mTOR kinase inhibitors was evaluated using an immunofluorescent cell-based assay. In this assay, inhibition of mTORC1 activity was measured by the reduction in the level of phosphorylated 4E-BP1Thr37/46 (p4E-BP1 Thr37/46), and inhibition of mTORC2 activity was measured by the reduction of phosphorylated AKTSer473 (pAKT S473).
PC3 cells (prostate tumor cell-line that contains a mutation in the tumor suppressor PTEN, that promotes the phosphorylation and activation of AKT and 4E-BP1) were used in the immunofluorescence assay. PC3 cells were seeded on 384 well plates (black clear bottom, Matrix #4332) overnight. PC3 cells were then treated with 40 μl of the serially diluted test compounds (in 5% fetal bovine serum, F12 medium containing 0.25% DMSO) for ninety minutes at 37° C. The test compound solution was removed, and the plates were washed gently two times with 25 μl phosphate buffered saline (PBS). The cells were fixed by adding 25 μl of Prefer reagent (from Anatech LTD, Cat#414, a glyoxal fixative for fixing proteins within a cell) for sixty minutes followed by three washes with PBS. 5% Goat serum in PBS/0.3% Triton was used to block non-specific binding (60 minutes).
The primary antibodies targeting pAKT S473 and p4E-BP1 Thr37/46 were diluted into PBS/0.3% Triton and incubated with the cells overnight at 4° C. The antibodies targeting pAKTS473 (Cat#4085, Cell signaling) and p4E-BP1 Thr37/46 (Cat#2855, Cell signaling) were used at a 1:100 dilution. Plates were washed three times with PBS/0.1% Tween 20 before adding the secondary antibody at a 1:200 dilution. (goat anti-rabbit containing a fluorescent label, Alexa Fluor 488, Cat#A11008, Invitrogen) in PBS/0.3% Triton for 60 minutes.
Finally, the plates were washed three times with PBS/0.1% Tween 20 and the fluorescent intensity was read using an Analyst HT from Molecular Devices. The fluorescent intensity values from the serially diluted compound treatment group were analyzed using the Xlfit 4 program ([…]) (Formula 205: Y=Bottom+(Top-Bottom)/(1+(IC50/X)^Hillslope) to generate the IC50 value. Where Top is the maximum signal without Compound (+DMSO only) and Bottom represents maximum inhibition. Y is the fluorescence at some compound concentration. The control used to determine the fluorescent intensities for 100% pAKT S473 or 100% phosphorylated p4E-BP1 Thr37/46 were measured from untreated wells that contained only DMSO, instead of test compound.

human mTOR enzyme, sequence (P42345 1360-2549 limits assumed): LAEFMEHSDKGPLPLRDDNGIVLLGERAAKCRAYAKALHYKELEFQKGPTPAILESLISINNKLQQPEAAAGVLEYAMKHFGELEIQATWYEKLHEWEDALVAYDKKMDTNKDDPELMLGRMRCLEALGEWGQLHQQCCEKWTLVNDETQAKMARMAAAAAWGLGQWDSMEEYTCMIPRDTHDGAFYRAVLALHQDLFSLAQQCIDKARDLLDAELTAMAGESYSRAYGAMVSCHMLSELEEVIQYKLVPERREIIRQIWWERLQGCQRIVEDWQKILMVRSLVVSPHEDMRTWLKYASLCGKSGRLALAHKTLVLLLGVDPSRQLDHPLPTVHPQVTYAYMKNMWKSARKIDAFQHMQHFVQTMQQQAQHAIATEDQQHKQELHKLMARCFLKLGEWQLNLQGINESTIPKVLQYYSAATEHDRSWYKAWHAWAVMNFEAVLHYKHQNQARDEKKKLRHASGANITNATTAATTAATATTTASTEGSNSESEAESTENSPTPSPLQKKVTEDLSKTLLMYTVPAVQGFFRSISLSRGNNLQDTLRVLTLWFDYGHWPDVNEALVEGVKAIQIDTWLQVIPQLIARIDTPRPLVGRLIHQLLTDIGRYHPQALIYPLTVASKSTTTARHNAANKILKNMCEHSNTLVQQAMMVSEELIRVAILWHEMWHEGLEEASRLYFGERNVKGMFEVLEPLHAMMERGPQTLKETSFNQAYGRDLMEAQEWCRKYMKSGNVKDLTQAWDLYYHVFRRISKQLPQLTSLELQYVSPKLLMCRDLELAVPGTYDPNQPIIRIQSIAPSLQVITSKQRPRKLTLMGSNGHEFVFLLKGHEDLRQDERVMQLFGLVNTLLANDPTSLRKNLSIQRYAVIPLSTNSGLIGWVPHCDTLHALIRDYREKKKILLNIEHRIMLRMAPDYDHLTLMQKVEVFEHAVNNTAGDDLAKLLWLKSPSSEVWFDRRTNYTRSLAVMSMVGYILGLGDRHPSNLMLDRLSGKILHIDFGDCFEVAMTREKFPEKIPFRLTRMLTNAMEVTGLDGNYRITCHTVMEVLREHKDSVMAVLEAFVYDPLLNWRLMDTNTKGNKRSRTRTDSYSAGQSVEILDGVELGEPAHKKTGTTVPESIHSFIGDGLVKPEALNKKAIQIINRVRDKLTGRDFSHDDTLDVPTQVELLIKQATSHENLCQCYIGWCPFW

Compound | IC50 ([1]; rated class) | IC50 ([2]; rated class) | IC50 ([1]; numeric value) | IC50 ([2]; numeric value)
COCCOC[C@]1(CO)CC[C@H](c2nc3c(-c4ccc(-c5ccccc5)nc4)cnn3c(N)c2Br)CC1 [Compound 168, ((1S,4S)-4-(7-amino-6-bromo-3-(6-phenylpyridin-3-yl)pyrazolo[1,5-a]pyrimidin-5-yl)-1-((2-methoxyethoxy)-methyl)cyclohexyl)-methanol] | 1 to 100 nM | 1000 to 2000 nM | – | –
COCCOC[C@]1(C(=O)O)CC[C@@H](c2nc3c(-c4cnn(-c5ccccc5)c4)cnn3c(N)c2Br)CC1 [Compound 14, (1S,4S)-4-(7-amino-6-bromo-3-(1-phenyl-1H-pyrazol-4-yl)pyrazolo[1,5-a]pyrimidin-5-yl)-1-((2-methoxyethoxy)methyl)cyclohexane-carboxylic acid] | 1 to 100 nM | 5000 to 15000 nM | – | –
COCCO[C@]1(C(=O)NN)CC[C@@H](c2nc3c(-c4cnn(-c5ccccc5)c4)cnn3c(N)c2S(C)(=O)=O)CC1 [Compound 107, (1R,4R)-4-(7-amino-6-(methylsulfonyl)-3-(1-phenyl-1H-pyrazol-4-yl)pyrazolo[1,5-a]pyrimidin-5-yl)-1-(2-methoxyethoxy)-cyclohexane-carbohydrazide] | 1 to 100 nM | 100 to 1000 nM | – | –
Nc1c(Br)c([C@H]2CC[C@]3(CC2)NC(=O)NC3=O)nc2c(-c3ccc(-c4ccccc4)nc3)cnn12 [Compound 72, 8-(7-amino-6-bromo-3-(6-phenylpyridin-3-yl)pyrazolo[1,5-a]pyrimidin-5-yl)-1,3-diazaspiro[4.5]decane-2,4-dione] | – | – | 11.7 nM | 870 nM
COCCO[C@]1(C(=O)O)CC[C@@H](c2nc3c(-c4ccc(-c5nccs5)nc4)cnn3c(N)c2C(C)=O)CC1 [Compound 60, (1R,4R)-4-(6-acetyl-7-amino-3-(6-(thiazol-2-yl)pyridin-3-yl)pyrazolo[1,5-a]pyrimidin-5-yl)-1-(2-methoxyethoxy) cyclohexanecarboxylic acid] | 1 to 100 nM | 100 to 1000 nM | – | –
COC[C@]1(C(=O)O)CC[C@H](c2nc3c(-c4cnc5ccc(F)cc5c4)cnn3c(N)c2C(C)=O)CC1 [Compound 22, (1R,4R)-4-(6-acetyl-7-amino-3-(6-fluoroquinolin-3-yl)pyrazolo[1,5-a]pyrimidin-5-yl)-1-(methoxymethyl)-cyclohexane-carboxylic acid] | 1 to 100 nM | 100 to 1000 nM | – | –
Nc1c(Br)c(C2CCC(N)(C(=O)O)CC2)nc2c(-c3ccc(-c4ccccc4)nc3)cnn12 (stereo not shown) [Compound 73, 1-amino-4-(7-amino-6-bromo-3-(6-phenylpyridin-3-yl)pyrazolo[1,5-a]pyrimidin-5-yl)cyclohexanecarboxylic acid] | 1 to 100 nM | 5000 to 15000 nM | – | –
COCCOCC1(C(=O)O)CCC(c2nc3c(-c4ccc(-c5ccccc5)nc4)cnn3c(N)c2C(C)=O)CC1 (stereo not shown) [Compound 24, 4-(6-acetyl-7-amino-3-(6-phenylpyridin-3-yl)pyrazolo[1,5-a]pyrimidin-5-yl)-1-((2-methoxyethoxy)methyl)cyclohexane-carboxylic acid] | 1 to 100 nM | 100 to 1000 nM | – | –
CC(=O)c1c(C2CCC(O)(CO)CC2)nc2c(-c3ccc(-c4cnn(C)c4)nc3)cnn2c1N (stereo not shown) [Compound 145, 1-(7-amino-5-(4-hydroxy-4-(hydroxymethyl)-cyclohexyl)-3-(6-(1-methyl-1H-pyrazol-4-yl)pyridin-3-yl)pyrazolo[1,5-a]pyrimidin-6-yl)ethanone] | 1 to 100 nM | 1000 to 2000 nM | – | –
CC(=O)c1c(N)n2ncc(-c3ccc(-c4ccccc4)nc3)c2nc1[C@H]1CC[C@@](F)(C(=O)O)CC1 [Compound 17, (1R,4R)-4-(6-acetyl-7-amino-3-(6-phenylpyridin-3-yl)pyrazolo[1,5-a]pyrimidin-5-yl)-1-fluorocyclohexane-carboxylic acid] | 1 to 100 nM | 100 to 1000 nM | – | –
CS[C@]1(C(=O)O)CC[C@@H](c2nc3c(-c4cnn(-c5ccccc5)c4)cnn3c(N)c2Br)CC1 [Compound 10, (1R,4R)-4-(7-amino-6-bromo-3-(1-phenyl-1H-pyrazol-4-yl)pyrazolo[1,5-a]pyrimidin-5-yl)-1-(methylthio)-cyclohexane-carboxylic acid] | 1 to 100 nM | 2000 to 5000 nM | – | –
